Measurements from patent US20020025337A1, “LIPID VEHICLE DRUG DELIVERY COMPOSITION CONTAINING VITAMIN E” (priority 1995, published 2002).
Converted amounts (≈) assume the structure as drawn.

Test: Saturated solubility of drugs in water, organic solvents, oils and Vitamin E
Conditions: for solubility / solubility at 18 h: 25 °C
Procedure: To measure the SVE of a drug, saturated solutions of the drug are prepared in methanol and chloroform. An appropriate means of preparing a saturated solution is to suspend approximately 60 mg of drug in 3 ml of the solvent and stir for 24 hours at room temperature. If all of the drug dissolves during this time, further 10 mg aliquots should be added until a suspension is again formed. After 24 hours, the suspension are centrifuged or filtered to separate drug in solution from undissolved particulate drug. The drug solutions are assayed for drug content by an appropriate means, eg. high performance liquid chromatography, and the saturated solubility calculated. The SVE is calculated by dividing the solubility in chloroform by the solubility in methanol and expressed as weight in volume (w/v).
Into each of two 10 ml bottles was weighed 60 mg of itraconazole. To one bottle was added 3 ml of chloroform. […] Further itraconazole was added in 100 mg aliquots until a suspension was formed. […] To the other bottle was added 3 ml of methanol. A magnetic stirrer bar was added to each bottle and the contents were left to stir on a magnetic stirrer. After being left overnight to stir (18 hours), the contents of each bottle were filtered through a 0.1 μm PTFE filter (Whatman). […] To assay the methanol filtrate for itraconazole content, 1 ml was diluted to 5 ml with the same diluent used for the chloroform analysis. Both samples were assayed for itraconazole content using reverse-phase high performance liquid chromatography.

[1] = oil or lipid, Solubility (mg/ml) Vitamin E
[2] = organic solvent or mixture, thermodynamic from solid, Solubility (mg/ml) Chloroform
[3] = organic solvent or mixture, thermodynamic from solid, Solubility (mg/ml) Methanol

C[C@]12C=CC(=O)C=C1CC[C@@H]1[C@@H]2[C@@H](O)C[C@@]2(C)[C@H]1CC[C@]2(O)C(=O)CO [Prednisolone] showed a solubility (organic solvent or mixture, thermodynamic from solid, Solubility (mg/ml) Methanol, methanol, room temperature (25° C.)) of 33 mg/mL (≈ 91.6 mM).
With CC(C)[C@@H](C)/C=C/[C@@H](C)[C@H]1CC[C@H]2C3=CC=C4C[C@@H](O)CC[C@]4(C)[C@H]3CC[C@]12C [Ergosterol] the “Solubility (mg/ml) Water” value was “insol”, the solubility [1] was 50 mg/mL (≈ 126 mM) and the solubility [2] was 32 mg/mL (≈ 80.7 mM). For the same compound, the solubility [3] was 1.5 mg/mL (≈ 3.78 mM).
In the case of CCC(C)n1ncn(-c2ccc(N3CCN(c4ccc(OCC5COC(Cn6cncn6)(c6ccc(Cl)cc6Cl)O5)cc4)CC3)cc2)c1=O (centres unmarked) [Itraconazole], the “Solubility (mg/ml) Water” value is reported as “insol”, the solubility [1] is reported as 60 mg/mL (≈ 85 mM) and the solubility (oil or lipid, solubility of the drug in vegetable oils) is reported as ≤ 0.4 mg/mL. It also gave a solubility [2] of 500 mg/mL (≈ 709 mM), a solubility at 18 h (organic solvent or mixture, thermodynamic from solid, solubility of itraconazole in chloroform) of 350 mg/mL (≈ 496 mM) and a solubility at 18 h (organic solvent or mixture, thermodynamic from solid, solubility of itraconazole in methanol) of 0.7 mg/mL (≈ 0.992 mM). It also gave an SVE value (18 h) of 500.
For C[C@@H]1[C@H](O)[C@@H](C)/C=C/C=C/C=C/C=C/C=C/C=C/C=C/[C@H](O[C@@H]2O[C@H](C)[C@@H](O)[C@H](N)[C@@H]2O)C[C@@H]2O[C@](O)(C[C@@H](O)C[C@@H](O)[C@H](O)CC[C@@H](O)C[C@@H](O)CC(=O)O[C@H]1C)C[C@H](O)[C@H]2C(=O)O [Amphotericin], the “Solubility (mg/ml) Chloroform” value was “insol”, the “Solubility (mg/ml) Vitamin E” value was “insol” and the “Solubility (mg/ml) Water” value was “insol”.
In the case of CC(=O)O[C@H]1C(=O)[C@@]2(C)[C@H]([C@H](OC(=O)c3ccccc3)[C@]3(O)C[C@H](OC(=O)[C@H](O)[C@@H](NC(=O)c4ccccc4)c4ccccc4)C(C)=C1C3(C)C)[C@]1(OC(C)=O)CO[C@@H]1C[C@@H]2O [Taxol], the “Solubility (mg/ml) Water” value is reported as “insol”.
For CC(C)CCC[C@@H](C)[C@H]1CC[C@H]2[C@@H]3CC=C4C[C@@H](O)CC[C@]4(C)[C@H]3CC[C@]12C [Cholesterol], the “Solubility (mg/ml) Water” value was “insol”, the solubility [1] was 150 mg/mL (≈ 388 mM) and the solubility [2] was 200 mg/mL (≈ 517 mM). It also gave a solubility [3] of 5 mg/mL (≈ 12.9 mM).
